Measured values as given in patent US7799819B2, “7-Amido-isoindolyl compounds and their pharmaceutical uses” (Celgene Corporation, priority 2003, dated 2010).
Structures can show the parent of a compound that is named as a salt.

Compound | melting point
CCOc1cc([C@@H](CS(C)(=O)=O)N2Cc3c(Cl)ccc(NC(=O)CN4CCOCC4)c3C2=O)ccc1OC.Cl | 198 to 200 °C
CCOc1cc([C@@H](CS(C)(=O)=O)N2Cc3c(Cl)ccc(NC(=O)CN(C)C)c3C2=O)ccc1OC.Cl | 198 to 200 °C
CCOc1cc([C@@H](CCN(C)C)N2Cc3cccc(NC(=O)C4CC4)c3C2=O)ccc1OC.Cl | 119 to 121 °C
CCOc1cc([C@@H](CCN)N2Cc3cccc(NC(=O)C4CC4)c3C2=O)ccc1OC (as salt: salt) [Example 5, (1R)-Cyclopropanecarboxylic acid {2-[3-amino-1-(3-ethoxy-4-methoxy-phenyl)-propyl]-3-oxo-2,3-dihydro-1H-isoindol-4-yl}-amide] | 169 to 171 °C
CCOc1cc([C@@H](CCO)N2Cc3cccc(NC(=O)C4CC4)c3C2=O)ccc1OC [Example 1, (1R)-Cyclopropanecarboxylic acid {2-[1-(3-ethoxy-4-methoxy-phenyl)-3-hydroxy-propyl]-3-oxo-2,3-dihydro-1H-isoindol-4-yl}-amide] | 103 to 105 °C
CCOc1cc(C(CCN(OC(=O)OC(C)(C)C)C(=O)OC(C)(C)C)N2Cc3cccc(NC(=O)C4CC4)c3C2=O)ccc1OC [Example 2, (3R)-(tert-Butoxy)-N-{3-[7-(cyclopropylcarbonylamino)-1-oxoisoindolin-2-yl]-3-(3-ethoxy-4-methoxyphenyl)propyl}carbonylamino(tert-butoxy)formate] | 153 to 155 °C
CCOc1cc([C@@H](CCNO)N2Cc3cccc(NC(=O)C4CC4)c3C2=O)ccc1OC [Example 3, (1R)-Cyclopropanecarboxylic acid {2-[1-(3-ethoxy-4-methoxy-phenyl)-3-hydroxyamino-propyl]-3-oxo-2,3-dihydro-1H-isoindol-4-yl}-amide] | 136 to 138 °C
CCOc1cc([C@@H](CCNS(C)(=O)=O)N2Cc3cccc(NC(=O)C4CC4)c3C2=O)ccc1OC [Example 4, (1R)-Cyclopropanecarboxylic acid {2-[1-(3-ethoxy-4-methoxy-phenyl)-3-methanesulfonylamino-propyl]-3-oxo-2,3-dihydro-1H-isoindol-4-yl}-amide] | 93 to 95 °C
CCOc1cc([C@@H](CCNC(N)=O)N2Cc3cccc(NC(=O)C4CC4)c3C2=O)ccc1OC [Example 6, (1R)-Cyclopropanecarboxylic acid {2-[1-(3-ethoxy-4-methoxy-phenyl)-3-ureido-propyl]-3-oxo-2,3-dihydro-1H-isoindol-4-yl}-amide] | 162 to 164 °C
CCOc1cc([C@@H](CCS(C)(=O)=O)N2Cc3cccc(NC(=O)C4CC4)c3C2=O)ccc1OC [Example 8, (1R)-Cyclopropanecarboxylic acid {2-[1-(3-ethoxy-4-methoxy-phenyl)-3-methanesulfonyl-propyl]-3-oxo-2,3-dihydro-1H-isoindol-4-yl}-amide] | 148 to 150 °C
CCOc1cc([C@@H](CC(=O)NO)N2Cc3cccc(NC(=O)C4CC4)c3C2=O)ccc1OC [Example 9, (1R)-Cyclopropanecarboxylic acid {2-[1-(3-ethoxy-4-methoxy-phenyl)-2-hydroxycarbamoyl-ethyl]-3-oxo-2,3-dihydro-1H-isoindol-4-yl}-amide] | 160 to 162 °C
CCOc1cc([C@@H](CC(=O)NOC(C)=O)N2Cc3cccc(NC(=O)C4CC4)c3C2=O)ccc1OC [Example 10, (1R)-Cyclopropanecarboxylic acid {2-[2-acetoxycarbamoyl-1-(3-ethoxy-4-methoxy-phenyl)-ethyl]-3-oxo-2,3-dihydro-1H-isoindol-4-yl}-amide] | 140 to 142 °C
CCOc1cc([C@@H](CC[S+](C)[O-])N2Cc3cccc(NC(=O)C4CC4)c3C2=O)ccc1OC (stereo partly drawn) [Example 11, (3R)-Cyclopropanecarboxylic acid {2-[1-(3-ethoxy-4-methoxy-phenyl)-3-methanesulfinyl-propyl]-3-oxo-2,3-dihydro-1H-isoindol-4-yl}-amide] | 122 to 125 °C
CCOc1cc([C@@H](CC(=O)O)N2Cc3c(Cl)ccc(NC(=O)C4CC4)c3C2=O)ccc1OC [Example 12, (3R)-3-[4-Chloro-7-(cyclopropanecarbonyl-amino)-1-oxo-1,3-dihydro-isoindol-2-yl]-3-(3-ethoxy-4-methoxy-phenyl)-propionic acid] | 118 to 120 °C
CCOc1cc([C@@H](CC(=O)OC)N2Cc3c(Cl)ccc(NC(=O)C4CC4)c3C2=O)ccc1OC [Example 13, (3R)-3-[4-Chloro-7-(cyclopropanecarbonyl-amino)-1-oxo-1,3-dihydro-isoindol-2-yl]-3-(3-ethoxy-4-methoxy-phenyl)-propionic acid methyl ester] | 158 to 160 °C
CCOc1cc([C@@H](CC(N)=O)N2Cc3c(Cl)ccc(NC(=O)C4CC4)c3C2=O)ccc1OC [Example 14, (1R)-Cyclopropanecarboxylic acid {2-[2-carbamoyl-1-(3-ethoxy-4-methoxy-phenyl)-ethyl]-7-chloro-3-oxo-2,3-dihydro-1H-isoindol-4-yl}-amide] | 201 to 203 °C
CCOc1cc([C@@H](CC(=O)N(C)C)N2Cc3c(Cl)ccc(NC(=O)C4CC4)c3C2=O)ccc1OC [Example 15, (1R)-Cyclopropanecarboxylic acid {7-chloro-2-[2-dimethylcarbamoyl-1-(3-ethoxy-4-methoxy-phenyl)-ethyl]-3-oxo-2,3-dihydro-1H-isoindol-4-yl}-amide] | 163 to 165 °C
CCOc1cc([C@@H](CC(=O)NOC(C)=O)N2Cc3c(Cl)ccc(NC(=O)C4CC4)c3C2=O)ccc1OC [Example 17, (1R)-Cyclopropanecarboxylic acid {2-[2-acetoxycarbamoyl-1-(3-ethoxy-4-methoxy-phenyl)-ethyl]-7-chloro-3-oxo-2,3-dihydro-1H-isoindol-4-yl}-amide] | 139 to 141 °C
CCOc1cc([C@@H](CS(C)(=O)=O)N2Cc3c(Cl)ccc(NC(=O)C4CC4)c3C2=O)ccc1OC [Example 18, (1S)-Cyclopropanecarboxylic acid {7-chloro-2-[1-(3-ethoxy-4-methoxy-phenyl)-2-methanesulfonyl-ethyl]-3-oxo-2,3-dihydro-1H-isoindol-4-yl}-amide] | 197 to 199 °C
CCOc1cc([C@@H](CS(C)(=O)=O)N2Cc3c(Br)ccc(NC(=O)C4CC4)c3C2=O)ccc1OC [Example 19, (1S)-Cyclopropanecarboxylic acid {7-bromo-2-[1-(3-ethoxy-4-methoxy-phenyl)-2-methanesulfonyl-ethyl]-3-oxo-2,3-dihydro-1H-isoindol-4-yl}-amide] | 219 to 221 °C
CCOc1cc(C(CC)N2Cc3cccc(NC(=O)C4CC4)c3C2=O)ccc1OC (stereo not shown) [Example 20, Cyclopropanecarboxylic acid {2-[1-(3-ethoxy-4-methoxy-phenyl)-propyl]-3-oxo-2,3-dihydro-1H-isoindol-4-yl}-amide] | 107 to 109 °C
CCOc1cc(C(CC#N)N2Cc3c(Cl)ccc(NC(=O)C4CC4)c3C2=O)ccc1OC (stereo not shown) [Example 21, Cyclopropanecarboxylic acid {7-chloro-2-[2-cyano-1-(3-ethoxy-4-methoxy-phenyl)-ethyl]-3-oxo-2,3-dihydro-1H-isoindol-4-yl}-amide] | 200 to 202 °C
